Reference: patent US20200392161A1, “SHP2 PHOSPHATASE INHIBITORS AND METHODS OF USE THEREOF” (Relay Therapeutics, Inc., priority 2018, published 2020)
Structures can show the parent of a compound that is named as a salt.

Target: T1, SHP2 (Homo sapiens, UniProt Q06124)
T1 sequence (Q06124 1-593): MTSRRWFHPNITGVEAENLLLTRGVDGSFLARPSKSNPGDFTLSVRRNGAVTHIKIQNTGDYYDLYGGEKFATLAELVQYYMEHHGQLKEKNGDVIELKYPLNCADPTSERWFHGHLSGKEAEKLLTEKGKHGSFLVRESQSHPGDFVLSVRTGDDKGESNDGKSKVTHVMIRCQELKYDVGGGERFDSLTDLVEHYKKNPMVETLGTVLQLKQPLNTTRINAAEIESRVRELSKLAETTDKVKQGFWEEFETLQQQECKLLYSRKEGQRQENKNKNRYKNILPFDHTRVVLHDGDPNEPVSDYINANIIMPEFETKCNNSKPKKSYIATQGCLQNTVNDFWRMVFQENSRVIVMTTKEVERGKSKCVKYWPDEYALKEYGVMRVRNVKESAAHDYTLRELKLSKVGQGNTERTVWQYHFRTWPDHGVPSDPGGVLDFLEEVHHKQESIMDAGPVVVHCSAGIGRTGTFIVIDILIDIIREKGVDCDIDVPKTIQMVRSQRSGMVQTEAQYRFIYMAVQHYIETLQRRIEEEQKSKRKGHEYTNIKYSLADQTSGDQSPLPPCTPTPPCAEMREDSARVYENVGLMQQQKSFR
Experiment: SHP2 allosteric inhibition assay (DiFMUP prompt fluorescence)
Format: biochemical
Details: 0.25 nM SHP2, 0.5 μM IRS1_pY1172(dPEG8)pY1222 peptide, DiFMUP 100 μM
Excerpt: SHP2 Allosteric Inhibition Assay.
SHP2 is allosterically activated through binding of bis-tyrosyl-phosphorylated peptides to its Src Homology 2 (SH2) domains. The latter activation step leads to the release of the auto-inhibitory interface of SHP2, which in turn renders the SHP2 protein tyrosine phosphatase (PTP) active and available for substrate recognition and reaction catalysis. The catalytic activity of SHP2 was monitored using the surrogate substrate DiFMUP in a prompt fluorescence assay format.
The inhibitor dose response curves were analyzed using normalized IC50 regression curve fitting with control based normalization.

Structure (SMILES) | IC50 (Table 3) [µM] | further results
COc1cc(-c2nc(CSc3nnc(-c4ccccc4C)n3C)cs2)ccc1O [Compound C18] | 500 to 1000 | 
COc1cc(-c2nc(CN(C)Cc3ccco3)cs2)ccc1O [Compound C37] | > 1000 | 
C[C@@H]1OCC2(CCN(c3nc4[nH]nc(N5CCc6ncccc65)c4c(=O)n3C)CC2)[C@@H]1N [Compound F11, 6-[(3S,4S)-4-amino-3-methyl-2-oxa-8-azaspiro[4.5]decan-8-yl]-5-methyl-3-{1H,2H,3H-pyrrolo[3,2-b]pyridin-1-yl}-1H,4H,5H-pyrazolo[3,4-d]pyrimidin-4-one formate] |  | IC50 (Table 6): 1 to 20 µM
COc1ccccc1-c1nc(C(=O)N2CCCC(C(C)N)C2)cs1 (stereo not drawn) [Compound C46] | > 1000 | 
COc1nc(N2CCC(C)(N)CC2)nc2[nH]nc(-c3cccc(Cl)c3Cl)c12 [Compound F9, 1-[3-(2,3-dichlorophenyl)-4-methoxy-1H-pyrazolo[3,4-d]pyrimidin-6-yl]-4-methyl-piperidin-4-amine] |  | IC50 (Table 6): < 1 µM
Cc1c(-c2ccccc2Cl)nc2sc(N3CCC(C)(CN)C3)nn12 (stereo not drawn) [Compound A10, (1-(6-(2-chlorophenyl)-5-methylimidazo[2,1-b][1,3,4]thiadiazol-2-yl)-3-methylpyrrolidin-3-yl)methanamine formate] |  | IC50 (Table 1): < 5 µM
O=C(O)c1csc(-c2ccc(Cl)cc2Cl)n1 [Compound C5] | 500 to 1000 | 
CC1(N)CCN(c2cnn3c(-c4ccccc4Cl)coc23)CC1 [Compound E1, 1-(3-(2-chlorophenyl)pyrazolo[5,1-b]oxazol-7-yl)-4-methylpiperidin-4-amine formate] |  | IC50 (Table 5): 50 to 100 µM
CC1(N)CCCN(c2nn3c(N)c(-c4cccc(Cl)c4Cl)nc3s2)C1 (stereo not drawn) [Compound A1, 2-(3-amino-3-methylpiperidin-1-yl)-6-(2,3-dichlorophenyl)imidazo[2,1-b][1,3,4]thiadiazol-5-amine formate] |  | IC50 (Table 1): < 5 µM
COc1cc(-c2nc(Cn3cccc(C(F)(F)F)c3=O)cs2)ccc1O [Compound C21] | < 500 | 
CC1(CN)CCN(c2ncnc3c(-c4cccc(Cl)c4Cl)csc23)CC1 [Compound D2, (1-(7-(2,3-dichlorophenyl)thieno[3,2-d]pyrimidin-4-yl)-4-methylpiperidin-4-yl)methanamine] |  | IC50 (Table 4): 1 to 10 µM
COc1ccc(-c2nc(CSc3nccn3C3CC3)cs2)cc1OC [Compound C12] | < 500 | 
COc1ccc(-c2nc(CSc3ncccn3)cs2)cc1OC [Compound C7] | 500 to 1000 | 
CC1(N)CCN(c2ncnc3c(-c4cccc(Cl)c4Cl)csc23)CC1 [Compound D1, 1-(7-(2,3-dichlorophenyl)thieno[3,2-d]pyrimidin-4-yl)-4-methylpiperidin-4-amine formate] |  | IC50 (Table 4): 1 to 10 µM
COc1cccc(Nc2nnc(SCc3csc(-c4ccc(OC)c(OC)c4)n3)s2)c1 [Compound C39] | > 1000 | 
CC1(CN)CCN(c2nn3cc(C(=O)N4CCCc5ncccc54)nc3s2)C1 (stereo not drawn) [Compound A8, (2-(3-(aminomethyl)-3-methylpyrrolidin-1-yl)imidazo[2,1-b][1,3,4]thiadiazol-6-yl)(3,4-dihydro-1,5-naphthyridin-1(2H)-yl)methanone formate] |  | IC50 (Table 1): > 20 µM
COc1ccc(-c2nc(CSc3cccc[n+]3[O-])cs2)cc1OC [Compound C16] | < 500 | 
Cc1nc(N2CCC(C)(CN)C2)sc1-c1ccccc1Cl (stereo not drawn) [Compound B4, ((1-(5-(2-chlorophenyl)-4-methylthiazol-2-yl)-3-methylpyrrolidin-3-yl)methanamine formate] |  | IC50 (Table 2): > 100 µM
Cn1c(N2CCC(C)(CN)CC2)nc2[nH]nc(Sc3cccc(Cl)c3)c2c1=O [Compound F8, 6-(4-(aminomethyl)-4-methylpiperidin-1-yl)-3-((3-chlorophenyl)thio)-5-methyl-1H-pyrazolo[3,4-d]pyrimidin-4(5H)-one] |  | IC50 (Table 6): < 1 µM
COCCn1cnnc1SCc1csc(-c2ccc(OC)c(OC)c2)n1 [Compound C15] | < 500 | 
CC1(N)CCN(c2cc(=O)nc3[nH]nc(-c4cccc(Cl)c4F)n23)CC1 [Compound F2, 5-(4-amino-4-methylpiperidin-1-yl)-3-(3-chloro-2-fluorophenyl)-[1,2,4]triazolo[4,3-a]pyrimidin-7(1H)-one hydrochloride] |  | IC50 (Table 6): > 20 µM
CC1(N)CCN(c2cc(=O)n3c(-c4cccc(Cl)c4F)n[nH]c3n2)CC1 [Compound F3, 7-(4-amino-4-methylpiperidin-1-yl)-3-(3-chloro-2-fluorophenyl)-[1,2,4]triazolo[4,3-a]pyrimidin-5(1H)-one hydrochloride] |  | IC50 (Table 6): > 20 µM
O=C(O)Cc1csc(-c2cccc(Cl)c2Cl)n1 [Compound C41] | > 1000 | 

Structure (SMILES) | IC50 (Table 3) [µM] | further results
COc1ccc(-c2nc(CSc3nncs3)cs2)cc1 [Compound C28] | > 1000 | 
Cc1c(-c2ccccc2Cl)nc2sc(N3CCC(C)(CN)CC3)nn12 [Compound A7, (1-(6-(2-chlorophenyl)-5-methylimidazo[2,1-b][1,3,4]thiadiazol-2-yl)-4-methylpiperidin-4-yl)methanamine formate] |  | IC50 (Table 1): < 5 µM
COc1ccc(-c2nc(CSc3nnc(N(C(C)=O)C4CC4)s3)cs2)cc1OC [Compound C38] | > 1000 | 
O=C(Nc1cc(C(F)(F)F)cc(C(F)(F)F)c1)c1csc(-c2cccc(Cl)c2Cl)n1 [Compound C3] | 500 to 1000 | 
Cc1c(-c2ccccc2Cl)nc2sc(N3CCC(C)(N)C3)nn12 (stereo not drawn) [Compound A11, 1-(6-(2-chlorophenyl)-5-methylimidazo[2,1-b][1,3,4]thiadiazol-2-yl)-3-methylpyrrolidin-3-amine formate] |  | IC50 (Table 1): < 5 µM
CC1(CN)CCN(c2nn3c(N)c(-c4cccc(Cl)c4Cl)nc3s2)C1 (stereo not drawn) [Compound A5, 2-(3-(aminomethyl)-3-methylpyrrolidin-1-yl)-6-(2,3-dichlorophenyl)imidazo[2,1-b][1,3,4]thiadiazol-5-amine] |  | IC50 (Table 1): < 5 µM
O=C(O)c1csc(-c2cccc3ccccc23)n1 [Compound C2] | < 500 | 
Nc1c(-c2cccc(Cl)c2Cl)nc2sc(N3C[C@@H]4[C@@H](N)[C@@H]4C3)nn12 [Compound A3] |  | IC50 (Table 1): < 5 µM
CCC(=O)N(c1nnc(SCc2csc(-c3ccc(OC)c(OC)c3)n2)s1)C1CC1 [Compound C31] | > 1000 | 
CNCC1CCN(C(=O)Cc2csc(-c3ccc(Cl)cc3Cl)n2)C1 (stereo not drawn) [Compound C45] | > 1000 | 
CC1(N)CCN(C(=O)c2csc(-c3ccccc3Cl)n2)CC1 [Compound C1, (4-amino-4-methylpiperidin-1-yl)(2-(2-chlorophenyl)thiazol-4-yl)methanone formate] | < 500 | 
COc1ccc(-c2nc(CSc3nnc(-c4ccco4)o3)cs2)cc1OC [Compound C30] | > 1000 | 
O=C(O)c1csc(-c2ncccc2Cl)n1 [Compound C43] | > 1000 | 
Cn1c(N2CCC(C)(CN)CC2)nc2[nH]nc(N3CCCc4ncccc43)c2c1=O [Compound F1, 6-(4-(aminomethyl)-4-methylpiperidin-1-yl)-3-(3,4-dihydro-1,5-naphthyridin-1(2H)-yl)-5-methyl-1H-pyrazolo[3,4-d]pyrimidin-4(5H)-one, hydrochloride] |  | IC50 (Table 6): < 1 µM
COc1cccc(-c2nc(CSc3nncs3)cs2)c1 [Compound C9] | 500 to 1000 | 
CC1(CN)CCN(c2ncc(C(=O)N3CCCc4ncccc43)s2)C1 (stereo not drawn) [Compound B2, (2-(3-(aminomethyl)-3-methylpyrrolidin-1-yl)thiazol-5-yl)(3,4-dihydro-1,5-naphthyridin-1(2H)-yl)methanone] |  | IC50 (Table 2): > 100 µM
O=C(O)c1csc(-c2ccccc2Cl)n1 [Compound C42] | > 1000 | 
COc1cc(-c2nc(CSc3nncs3)cs2)ccc1O [Compound C4] | < 500 | 
C[C@@H]1OCC2(CCN(c3nc4[nH]nc(N5CCc6ccccc6C5)c4c(=O)n3C)CC2)[C@@H]1N [Compound F12, 6-[(3S,4S)-4-amino-3-methyl-2-oxa-8-azaspiro[4.5]decan-8-yl]-5-methyl-3-(1,2,3,4-tetrahydroisoquinolin-2-yl)-1H,4H,5H-pyrazolo[3,4-d]pyrimidin-4-one] |  | IC50 (Table 6): < 1 µM
CC1(CN)CCN(c2nn3c(N)c(-c4ccccc4Cl)nc3s2)C1 (stereo not drawn) [Compound A6, 2-(3-(aminomethyl)-3-methylpyrrolidin-1-yl)-6-(2-chlorophenyl)imidazo[2,1-b][1,3,4]thiadiazol-5-amine] |  | IC50 (Table 1): 5 to 20 µM
Cc1nc(-c2ccc(C(F)(F)F)cc2)sc1C(=O)N1CC[C@@H](N)C1 [Compound C44] | > 1000 | 
COc1cc(-c2nc(CN3CCOCC3C)cs2)ccc1O (stereo not drawn) [Compound C22] | > 1000 | 
